Legend:
[1] = system: T47D cells; assay: Cell inhibitory activity detected by MTT assay, T47D; format: cell-based; conditions: Homo sapiens, T47D, 72 h, read-out: T47D cell (IC50/nM), cell growth inhibition
[2] = biological target: T1, PI3K-γ kinase (p110γ) (Homo sapiens, UniProt P48736); assay: Determination of PI3K kinase activity (ADP Transcreener, fluorescence polarization); format: biochemical; conditions: Table 1; ATP 10 μM; read-out: PI3K-γ/nM (IC50 of inhibitory activity against PI3K kinase)
T1 construct: purchased Invitrogen PV4786
Outline: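 Each 25 μL reaction held PI3K enzyme (p110α/p85α 3 ng, p110β/p85α 60 ng, p110δ/p85α 90 ng, or p110γ 100 ng), 10 μM ATP, 30 μM PIP2:PS and 2% DMSO, incubated 1 h at 25 °C. Compounds were tested in duplicate across a 3-fold series, 0.00046–1 μM as prepared. ADP was detected by Transcreener fluorescence polarization, quantified against an ADP/ATP standard curve, and IC50 fitted.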

[3] = system: MCF-7 cells; assay: Cell inhibitory activity detected by MTT assay, MCF-7; format: cell-based; conditions: Homo sapiens, MCF7, 72 h, read-out: MCF-7 cell (IC50/nM), cell growth inhibition
Outline: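 MCF-7 cells in DMEM + 10% FBS were treated after adherence with compounds at 8 concentrations (0.0046–10 μM) for 72 h at 37 °C, 5% CO2.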

T1 sequence (P48736 whole entry): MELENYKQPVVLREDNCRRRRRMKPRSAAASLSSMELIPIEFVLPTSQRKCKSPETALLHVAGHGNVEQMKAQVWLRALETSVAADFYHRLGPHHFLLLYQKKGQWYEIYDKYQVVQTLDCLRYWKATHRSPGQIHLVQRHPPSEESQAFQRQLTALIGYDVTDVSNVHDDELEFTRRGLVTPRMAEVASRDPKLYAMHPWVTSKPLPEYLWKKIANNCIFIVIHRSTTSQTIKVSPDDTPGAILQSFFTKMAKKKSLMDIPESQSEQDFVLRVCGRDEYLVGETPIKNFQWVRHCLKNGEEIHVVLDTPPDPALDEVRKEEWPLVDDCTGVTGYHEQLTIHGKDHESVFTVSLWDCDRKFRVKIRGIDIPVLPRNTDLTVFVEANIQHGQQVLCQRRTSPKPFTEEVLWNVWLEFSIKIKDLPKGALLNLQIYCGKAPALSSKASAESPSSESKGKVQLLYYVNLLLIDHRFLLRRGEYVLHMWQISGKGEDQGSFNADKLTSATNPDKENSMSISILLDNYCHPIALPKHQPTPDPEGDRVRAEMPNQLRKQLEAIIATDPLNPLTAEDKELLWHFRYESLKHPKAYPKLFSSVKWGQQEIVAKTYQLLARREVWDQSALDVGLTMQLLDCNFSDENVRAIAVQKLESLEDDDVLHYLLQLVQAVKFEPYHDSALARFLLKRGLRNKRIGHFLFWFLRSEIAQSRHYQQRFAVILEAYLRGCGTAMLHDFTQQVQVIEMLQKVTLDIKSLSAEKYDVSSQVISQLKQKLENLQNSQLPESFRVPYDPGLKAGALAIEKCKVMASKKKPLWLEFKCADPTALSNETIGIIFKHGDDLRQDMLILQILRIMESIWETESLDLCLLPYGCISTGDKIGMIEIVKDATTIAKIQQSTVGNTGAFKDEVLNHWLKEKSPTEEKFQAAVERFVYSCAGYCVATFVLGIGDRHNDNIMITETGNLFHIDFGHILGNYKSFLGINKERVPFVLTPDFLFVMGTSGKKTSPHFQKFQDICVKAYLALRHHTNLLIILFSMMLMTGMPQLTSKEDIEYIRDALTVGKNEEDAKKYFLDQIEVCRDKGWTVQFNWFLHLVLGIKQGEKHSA

SMILES | IC50 [1] [nM] | IC50 [2] [nM] | IC50 [3] [nM]
CCS(=O)(=O)C1(c2cc(-c3cnc(N)cc3C(F)(F)F)nc(N3CCOCC3)n2)CCC1 [Compound S-49, 5-(6-(1-(ethylsulfonyl)cyclobutyl)-2-morpholinopyrimidin-4-yl)-4-(trifluoromethyl)pyridin-2-amine] | 208 | 2020 | 187
CS(=O)(=O)C(F)(F)c1cc(-c2cnc(N)cc2Cl)nc(N2CCOCC2)n1 [Compound S-54, 4-chloro-5-(6-(difluoro(methylsulfonyl)methyl)-2-morpholinopyrimidin-4-yl)pyridin-2-amine] | 255 | 199 | 159
Nc1cc(C(F)(F)F)c(-c2cc(C3(S(=O)(=O)c4ccccc4F)CC3)nc(N3CCOCC3)n2)cn1 [Compound S-58] | 129 | 121 | 184
Nc1cc(Cl)c(-c2cc(C3(S(=O)(=O)c4ccccc4F)CC3)nc(N3CCOCC3)n2)cn1 [Compound S-66] | 147 | 160 | 212
C[C@@H]1COCCN1c1nc(-c2cnc(N)cc2Cl)cc(C(C)(C)S(C)(=O)=O)n1 [Compound S-67] | 88 | 113 | 105
C[C@@H]1COCCN1c1nc(-c2cnc(N)cc2Cl)cc(C2(S(C)(=O)=O)CC2)n1 [Compound S-68] | 73 | 184 | 94
COC(C)(C)c1cc(-c2cnc(N)cc2C(F)(F)F)nc(N2CCOCC2)n1 [Compound S-71, 5-(6-(2-methoxypropan-2-yl)-2-morpholinopyrimidin-4-yl)-4-(trifluoromethyl) pyridin-2-amine] | 165 | 1030 | 436
COC(C)(C)c1cc(-c2cnc(N)cc2Cl)nc(N2CCOC[C@@H]2C)n1 [Compound S-75] | 249 | 654 | 131
COC(C)(C)c1cc(-c2cnc(N)cc2Cl)nc(N2CCOCC2)n1 [Compound S-76] | 289 | 228 | 66
CC(C)(c1cc(-c2cnc(N)cc2F)nc(N2CCOCC2)n1)S(C)(=O)=O [Compound S-81] | 123 | 181 | 104
CS(=O)(=O)C1(c2cc(-c3cnc(N)cc3F)nc(N3CCOCC3)n2)CC1 [Compound S-82] | 62 | 116 | 27
C[C@H]1COCCN1c1nc(-c2cnc(N)cc2F)cc(C2(S(C)(=O)=O)CC2)n1 [Compound S-83] | 30 | 204 | 11
C[C@H]1COCCN1c1nc(-c2cnc(N)cc2F)cc(C(C)(C)S(C)(=O)=O)n1 [Compound S-84] | 33 | 219 | 15
CCS(=O)(=O)C1(c2cc(-c3cnc(N)cc3F)nc(N3CCOCC3)n2)CC1 [Compound S-85] | 63 | 244 | 25
CC(C)S(=O)(=O)C1(c2cc(-c3cnc(N)cc3F)nc(N3CCOCC3)n2)CC1 [Compound S-86] | 69 | 192 | 29
Nc1cc(F)c(-c2cc(C3(S(=O)(=O)C4CC4)CC3)nc(N3CCOCC3)n2)cn1 [Compound S-88] | 81 | 98 | 102
CS(=O)(=O)C1(c2cc(N3CCOCC3)nc(-c3cnc(N)cc3C(F)(F)F)n2)CC1 [reference compound] | 854 | > 3000 | 639
